Reference: US7517851B2, “Chlamydia oligosaccharides” (priority 1996, dated 2009)
Read-outs that look alike come from different tables or passages of the source.

Test system: Chlamydia trachomatis L2/434/Bu
Type: cell-based
Settings: HeLa cells, maximum concentration (20 μg) tested

With oligomannose 9 the “% INHIBITION (infectivity inhibition)” value (first of two separate sets of experiments) was 64% and the “% INHIBITION (infectivity inhibition)” value (second of two separate sets of experiments) was 62%.
